Source: paper PMC3231940, “Disposition, metabolism and mass balance of [^14C]apremilast following oral administration” (Xenobiotica; the Fate of Foreign Compounds in Biological …, 2011)
Values joined by “and” are separate entries in the source; they are usually repeats but may differ in a detail not shown here. Equal values may be shown once.

How the values were obtained:
[1] = Metabolite profiling by HPLC radiochromatography in plasma, urine and faeces; assay type: in vivo, human; parameters: key to Plasma (% AUC relative to TRA); share of circulating radioactivity / % of dose excreted, urine: ND: not detected; D: detected by MS, but at concentrations too low to accurately quantify by radiochromatography; conditions: for % of dose excreted, faeces: faeces collected up to 96-h post-dose; for Plasma (% AUC relative to TRA); share of circulating radioactivity: AUC0-t (unchanged drug or metabolite)/AUC0-48 (TRA) * 100%; for Tmax: male; for Tmax / half-life: human; for Tmax / half-life / Concentration in circulation relative to apremilast: plasma; for Plasma Cmax: plasma radioactivity concentrations and radiochromatography; for % of dose excreted, urine: urine collected up to 48-h post-dose; for half-life: read-out: Plasma t½ (converted); for Share of the excreted radioactivity / excreted dose: urine plus faeces
Procedure: Individual plasma samples collected from all subjects at 0.5, 1, 2.5, 8, 24, 36 and 48 h post-dose were analysed for metabolite profiling. A pooled sample (equal volume from 0.5,1,2.5,8 and 24 h) from subject 1 was also used for metabolite profiling. Three volumes of acetonitrile were added to each sample, followed by mixing and centrifu-gation. The supernatant was removed and the pellet was washed twice with acetonitrile. The combined superna-tants were evaporated to dryness under a stream of nitrogen. The residues were re-suspended in acetonitrile: 1% formic acid in water (1:1), assayed for extraction recovery and analysed for metabolite profiling.
For each subject, urine samples were pooled using an equal percentage by volume of the 0-4, 4-8, 8-12 and 12-24-h samples. The 24-48-h urine sample from each subject and a pool of the 0-168-h urine samples from subject 1 were also analysed for metabolite profiling. Samples were mixed and centrifuged prior to the supernatants being transferred to fresh tubes for metabolite profiling analysis.
Faecal homogenates for metabolite profiling were pooled using an equal percentage by weight to generate two pools (0-48 h and 48-96 h) for each subject. An additional pool (0-168 h) was prepared using the samples collected from subject 1. An aliquot (approximately 6 g) of each pool was extracted with three volumes of acetonitrile; samples were mixed and centrifuged. The supernatant was removed and the pellets were extracted twice with an additional 12 mL of acetonitrile each time. The combined supernatants were evaporated to dryness under a stream of nitrogen and the residue was re-suspended in a small volume (approximately 400 μL) of acetonitrile: 1% formic acid in water (1:1). Samples were assayed for extraction recovery prior to metabolite profiling.
HPLC analysis for metabolite profiling was performed using a Shimadzu LC-10ADVP (Shimadzu Corp., Columbia, MD) or a Waters 2695 Alliance Separation Module (Waters Corp., Milford, MA) with the autosampler set to an ambient temperature of approximately 22°C. ASPD-10A VPUV-Vis Detector or a Waters 996 Photodiode array detector set to 254 nm was used to detect UV absorbance. [^14C]Apremilast and metabolites were separated using a Phenomenex Luna C 18(2) column (150 × 4.6 mm, 3 μm; Phenomenex, Torrance, CA) equipped with a RP-18 guard column (15×3.2 mm, 7 μm) or using an ACE 3 C18 column (150 × 4.6 mm, 3 μm; Advanced Chromatography Technologies, Aberdeen, Scotland) equipped with an ACE 3 guard column (10×3mm, 3 μm). The mobile phases used were 0.4% formic acid in water; pH 3.2 with ammonium hydroxide (mobile phase A) and acetonitrile (mobile phase B). The column temperature was 30°C and the flow rate was 0.7mL/min. The linear gradient was delivered as follows: 0-5 min to 100% A; 5-20 min to 85% A; 20-30 min hold at 85% A; 30-50 min to 65% A; 50-60 min to 60% A; 60-70 min to 50% A; 70-75 min to 0% A; hold at 0% A until 80 min; return to initial conditions over 2 min.
Radioactivity profiles for excreta were determined by radiochromatography using liquid chromatography-accurate radioisotope counting stop-flow system (LC-ARC; AIM Research Company, Wilmington, DE). Radioactivity was detected using a β-Ram Radioflow detector (IN/US Systems, Brandon, FL) equipped with a 1300-μL liquid cell. Liquid scintillation cocktail and column eluate were mixed at a ratio of 2.5:1. Radioactive peaks were quantified using LC-ARC data handling software. Plasma radioactivity profiles were determined by collecting the column eluate into 96-well Deepwell LumaPlates at a rate of 0.25 min/fraction. The plates were dried and the radioactivity in each well determined using a PerkinElmer TopCount NXT Microplate Scintillation Counter. HPLC radiochromatograms were reconstructed using LC-ARC data handling software.
Pharmacokinetic data were generated by non-compartmental analysis of plasma or whole blood versus time profiles using WinNonlin (version 4.1, Enterprise Edition). […]

[2] = test system: PDE4 enzyme isolated from U937 human monocytic cells; assay: PDE4 inhibition, cAMP hydrolysis assay; assay type: biochemical; conditions: for IC50: PDE4 from U937 cells, cAMP hydrolysis; for PDE4 and TNF-α inhibition activity compared with apremilast: both assays, in words
Procedure: (§1) PDE4 enzyme was isolated from U937 human monocytic cells and used for testing inhibition in a cAMP hydrolysis assay as previously described ([Schafer et al. 2010]). For the TNF-α production assay, human peripheral blood mono-nuclear cells (PBMC) were isolated from buffy coat of normal donor blood units (Blood Center of New Jersey, East Orange, NJ) by density centrifugation over Ficoll Hypaque (Pharmacia, Piscataway, NJ). Cells were cultured in RPMI 1640 (Life Technologies, Grand Island, NY) supplemented with 5% AB^+ human serum (Gemini Bio-products, Woodland, CA), 2-mM L-glutamine, 100-U/mL penicillin and 100-μg/mL streptomycin (Life Technologies). PBMC (2×10^5 cells) were plated in 96-well flat-bottom Costar tissue culture plates (Corning, NY) in duplicate. Cells were stimulated with lipopolysaccharides (LPS) (from Salmonella abortus equi; Sigma cat.no. L-1887, St.Louis, MO) at a final concentration of 1 ng/mL in the absence or presence of compounds. The compounds were dissolved in DMSO (Sigma) and subsequent dilutions were done in culture medium immediately before use. The compounds were added to cells 1 h before LPS stimulation. The cells were incubated for 16-18 h at 37°C in 5% CO2, and super-natants were then collected, diluted with culture medium and assayed for TNF-α levels by enzyme-linked immunosorbent assay (ThermoFisher, Rockford, IL). Fifty percent inhibitory concentrations (IC50) for the PDE4 enzymatic and TNF-α assay were calculated by non-linear regression analysis using Prism 5.1 (GraphPad Software). Regression curves were sigmoidal dose response curves with maximum and minimum constrained to 100% and 0%, respectively.

[3] = test system: TNF-α production by human peripheral blood mononuclear cells; assay: TNF-α production assay in LPS-stimulated PBMC; assay type: cell-based; conditions: LPS 1 ng/mL, 16-18 h, ELISA
Procedure: as §1

[4] = radiochromatography, single oral 20-mg dose, median and range
[5] = single oral 20-mg dose, mean ± SD
[6] = radiochromatography, single oral 20-mg dose, mean ± SD

Row | % of dose excreted, faeces [1] | Plasma (% AUC relative to TRA); share of circulating radioactivity [1] | % of dose excreted, urine [1] | IC50 [2] | IC50 [3] | Compound | further results
1 | 0.5 % of dose | – | – | – | – | CS(=O)(=O)C[C@H](c1ccc(O)c(O)c1)N1C(=O)c2cccc(N)c2C1=O [Metabolite M20, N-deacetylated, O-desmethyl, O-desethyl apremilast] | –
2 | 0.8 % of dose | – | – | – | – | CC(=O)Nc1cccc2c1C(=O)N([C@H](CS(C)(=O)=O)c1ccc(O)c(O)c1)C2=O [Metabolite M19, O-desmethyl, O-desethyl apremilast] | –
3 | 0.6 % of dose | – | – | – | – | COc1ccc([C@@H](CS(C)(=O)=O)NC(=O)c2cccc(NC(C)=O)c2C(=O)O)cc1O [Metabolite M22] | –
4 | – | 6.6% | 0.6 % of dose | 6.5 µM | > 10 µM | CCOc1cc([C@@H](CS(C)(=O)=O)N2C(=O)c3cccc(NC(=O)COC4OC(C(=O)O)C(O)C(O)C4O)c3C2=O)ccc1OC (stereo partly drawn) [Metabolite M16] | half-life [1, 6]: 11 ± 2.4 h; Tmax [1, 4]: 5.3 h; Plasma Cmax [1, 5]: 27.6±26.0 ngEq/mL; Plasma AUC0-t [1, 6]: 363 ±54 ngEq*h/mL; Plasma AUC0-∞ [1, 6]: 389±91 ngEq*h/mL
5 | 3.0 % of dose | – | – | – | – | O=C(CO)Nc1cccc(C(=O)O)c1C(=O)O [Metabolite M23, hydroxy 3-acetamide-phthalic acid] | –
6 | – | 4.9% | 4.0 % of dose | > 80 µM | > 10 µM | CCOc1cc([C@@H](CS(C)(=O)=O)N2C(=O)c3cccc(N)c3C2=O)ccc1OC1OC(C(=O)O)C(O)C(O)C1O (stereo partly drawn) [Metabolite M14, O-desmethyl, N-deacetyl apremilast glucuronide] | Tmax [1, 4]: 2.5 h; Plasma Cmax [1, 5]: 9.4±4.3 ngEq/mL; Plasma AUC0-t [1, 6]: 269±146 ngEq*h/mL
7 | – | – | 3.3 % of dose | – | – | CCOc1cc([C@@H](CS(C)(=O)=O)NC(=O)c2cccc(NC(C)=O)c2C(=O)O)ccc1OC1OC(C(=O)O)C(O)C(O)C1O (stereo partly drawn) [Metabolite M15] | –
8 | 0.9 % of dose | D | 1.2 % of dose | 0.094 µM | 0.021 µM | CCOc1cc([C@@H](CS(C)(=O)=O)N2C(=O)c3cccc(NC(=O)CO)c3C2=O)ccc1OC [Metabolite M17] | Concentration in circulation relative to apremilast [1]: < 2%; PDE4 and TNF-α inhibition activity compared with apremilast [2]: IC50 values similar to those of apremilast
9 | 1.4 % of dose | – | – | – | – | CC(=O)Nc1cccc(C(=O)O)c1C(=O)O [Metabolite M18, 3-acetamide-phthalic acid] | –

The next lines start with the compound.

Row | Compound | % of dose excreted, faeces [1] | Plasma (% AUC relative to TRA); share of circulating radioactivity [1] | % of dose excreted, urine [1] | IC50 [2] | IC50 [3] | further results
10 | COc1ccc([C@@H](CS(C)(=O)=O)N2C(=O)c3cccc(NC(C)=O)c3C2=O)cc1OC1OC(C(=O)O)C(O)C(O)C1O (stereo partly drawn) [Metabolite M13] | – | 2.4% | 2.0 % of dose | – | – | Tmax [1, 4]: 2.5 h; Plasma Cmax [1, 5]: 7.5±6.8 ngEq/mL; Plasma AUC0-t [1, 6]: 133±125 ngEq*h/mL
11 | hydroxylated N-deacetylated apremilast [Metabolite M11] | 1.4 % of dose | 2.5% | – | – | – | Plasma Cmax [1, 5]: 20.2±7.6 ngEq/mL; Plasma AUC0-t [1, 6]: 139±89 ngEq*h/mL; Plasma AUC0-∞ [1, 6]: 232±151 ngEq*h/mL; Plasma t½ [1, 6]: 10.7 ± 10.2 h; Plasma Tmax [1, 4]: 1.0(0.5-2.5) h
12 | CCOc1cc([C@@H](CS(C)(=O)=O)N2C(=O)c3cccc(N)c3C2=O)ccc1O [Metabolite M4, N-deacetylated, O-desmethyl apremilast] | 2.4 % of dose | – | – | – | – | –
13 | CCOc1cc([C@@H](CS(C)(=O)=O)N2C(=O)c3cccc(NC(C)=O)c3C2=O)ccc1O[C@@H]1O[C@H](C(=O)O)[C@@H](O)[C@H](O)[C@H]1O [Metabolite M12, O-desmethyl apremilast glucuronide] | – | 38.7% | 34 % of dose and 33.7 % of dose | > 100 µM | > 10 µM | Plasma (% AUC relative to TRA); share of circulating radioactivity ([1]; listed as O-desmethyl apremilast glucuronide): 39%; half-life [1, 6]: 15.8 ± 3.9 h; Tmax [1, 4]: 2.5 h; Plasma Cmax [1, 5]: 111±36 ngEq/mL; Plasma AUC0-t [1, 6]: 2124±331 ngEq*h/mL; Plasma AUC0-∞ [1, 6]: 2446±416 ngEq*h/mL; Share of the excreted radioactivity / excreted dose [1]: 34%
14 | CCOc1cc([C@@H](CS(C)(=O)=O)N2C(=O)c3cccc(NC(=O)CO)c3C2=O)ccc1O [Metabolite M10, acetamide hydroxylated, O-desmethyl apremilast] | 1.3 % of dose | – | – | – | – | –
15 | hydroxylated N-deacetylated, O-desmethyl apremilast [Metabolite M8] | 1.0 % of dose | – | – | – | – | –
16 | CCOc1cc([C@@H](CS(C)(=O)=O)NC(=O)c2cccc(NC(C)=O)c2C(=O)O)ccc1O [Metabolite M9] | 8 % of dose and 7.7 % of dose | – | – | – | – | Share of the excreted radioactivity / excreted dose [1]: > 4%
17 | CCOc1cc([C@@H](CS(C)(=O)=O)N2C(=O)c3cccc(N)c3C2=O)ccc1OC [Metabolite M7, N-deacetyl apremilast] | 0.1 % of dose | D | D | 0.16 µM | 0.13 µM | Concentration in circulation relative to apremilast [1]: < 2%; PDE4 and TNF-α inhibition activity compared with apremilast [2]: IC50 values similar to those of apremilast
18 | COc1ccc([C@@H](CS(C)(=O)=O)N2C(=O)c3cccc(NC(C)=O)c3C2=O)cc1O [Metabolite M5, O-desethyl apremilast] | – | – | – | 44 µM | 4.9 µM | –
19 | CCOc1cc([C@@H](CS(C)(=O)=O)N2C(=O)c3cccc(NC(C)=O)c3C2=O)ccc1O [Metabolite M3, O-desmethyl apremilast] | 5 % of dose and 4.6 % of dose | D | D | 8.3 µM | 5.6 µM | Share of the excreted radioactivity / excreted dose [1]: > 4%
